Where two headings read alike, the source gives them in different places.
Key:
Assay type in all cases: cell-based
CAL-27 cells [1] = assay: CCK-8 proliferation assay, CAL-27; settings: for IC50: Homo sapiens; for Selectivity Index CAL-27: SI = IC50,VERO/IC50,CAL-27
Method: (§1) The OSCC cell lines CAL-27 (STCC12901P, Servicebio, Wuhan, China) and SAS (CC0706, Cellcook, Guangzhou, China) were cultured in Dulbecco Modified Eagle Medium F12 (DMEM/F12) (G4610-500ML, Servicebio, Wuhan, China) supplemented with 10% fetal bovine serum (FBS) (AB-FBS-DIA1050, ABW, Shanghai, China) and 100 U/mL penicillin-streptomycin-gentamicin solution (G4014-100ML, Servicebio, Wuhan, China). VERO cells were cultured in DMEM (G4524-500ML, Servicebio, Wuhan, China) supplemented with 10% FBS (AB-FBS-DIA1050, ABW, China) and 100 U/mL penicillin–streptomycin–gentamicin solution (G4014-100ML, Servicebio, Wuhan, China). […] were maintained at 37 °C in a humidified 5% CO2 incubator. For experiments, 1 × 10^6 cells were seeded per T-25 culture flask.
(§2) CAL-27, SAS, and VERO cells were seeded in 96-well plates at a density of 5000 cells per well. At specified time intervals, 10 μL of Cell Counting Kit-8 (CCK-8) reagent (K1018, Apexbio, Boston, MA, USA) was added to each well and incubated for 2 h. Absorbance at 450 nm was measured using a microplate reader (Infinite M200 Pro, Tecan Group, Männedorf, Switzerland).

SAS cells [2] = assay: CCK-8 proliferation assay, SAS; settings: for IC50: SAS; for Selectivity Index SAS: SI = IC50,VERO/IC50,SAS
Method: as §1, §2

[3] = tested on: COX-2 mRNA in CAL-27 cells; assay: RT-qPCR COX-2 mRNA, CAL-27; settings: CAL-27, working concentrations, 24 h
Method: (§3) Equal amounts of RNA were reverse transcribed into cDNA using the Reverse Transcription Kit (AG11705, Accurate Biology, Guangzhou, China) following the manufacturer’s instructions. Quantitative PCR was performed on a QIAGEN Rotor-GeneQ system (9001862, QIAGEN, Hilden, Germany) with SYBR Green Pro Taq HS Premix II (AG11702, Accurate Biology, China).
(§4) The PCR protocol consisted of initial denaturation at 95 °C for 30 s, followed by 40 cycles of 95 °C for 5 s and 60 °C for 30 s. All reactions were performed in triplicate, with melting curve analysis confirming amplification specificity. The expression of the target genes was normalized to GAPDH, and fold changes were calculated in the manner of the 2^−ΔΔCT .

COX-2 mRNA in SAS cells = assay: RT-qPCR COX-2 mRNA, SAS; settings: working concentrations, 24 h, vs control
Method: as §3, §4

[4] = tested on: CYP19A1 mRNA in SAS cells; assay: RT-qPCR CYP19A1 mRNA, SAS; settings: vs control group and CXB-treated group
Method: as §3, §4

[5] = tested on: MMP9 mRNA in CAL-27 cells; assay: RT-qPCR MMP9 mRNA, CAL-27; settings: CAL-27, 24 h, vs control
Method: as §3, §4

CAL-27 cells [6] = assay: Hoechst 33342 staining, CAL-27; settings: CAL-27, 24 h, working concentrations, vs NC
Method: (§5) After 24 h drug treatment at the predefined working concentrations, CAL-27 and SAS cells were dyed with 300 μL Hoechst 33342 staining (C1022, Beyotime, China) in the dark at 37 °C for 10 min. Then, the residual Hoechst 33342 staining was washed 3 times with 1 × phosphate-buffered saline (PBS, G4250-500ML, Servicebio, China). The images were then immediately examined under an inverted fluorescence microscope (CX23, Olympus, Japan).

SAS cells [7] = assay: Hoechst 33342 staining, SAS; settings: 24 h, working concentrations, vs NC
Method: as §5

[8] = tested on: BCL2 mRNA in CAL-27 cells; assay: RT-qPCR BCL2 mRNA, CAL-27; settings: CAL-27, 24 h, vs control (NC)
Method: as §3, §4

[9] = tested on: BCL2 protein in CAL-27 cells; assay: Western blot BCL2, CAL-27; settings: CAL-27, vs CXB
Method: Cell lysates were centrifuged at 12,000× g for 10 min at 4 °C and then quantified using the BCA Protein Assay Kit (CW0014S, Cwbio, Taizhou, China). The lysate was denatured with sodium dodecyl sulfate–polyacrylamide gel electrophoresis (SDS-PAGE) sample loading buffer (P1040, Solarbio, Beijing, China), followed by SDS-PAGE and electrotransfer to polyvinylidene difluoride membranes (10600023, Cytiva, Marlborough, MA, USA). The membranes were incubated overnight at 4 °C with GAPDH (1:5000, 1049-1-AP, Proteintech Group, Wuhan, China), anti-PTGS2 (1:2000, 12375-1-AP, Proteintech Group, China), anti-BAX (1:1000, ab777, Abcam, Cambridge, UK), anti-BCL2 (1:5000, ET1702-53, HUABIO, Hangzhou, China), anti-BCL-XL (1:8000, 10783-1-AP, Proteintech Group, China), anti-MMP2 (1:3000, 66366-1-Ig, Proteintech Group, China), anti-MMP9 (1:3000, 10372-2-AP, Proteintech Group, China), anti-JAK1 (1:3000, 66466-1-Ig, Proteintech Group, China), anti-phospho-JAK1 (1:400, GB115604-100, Servicebio, China), anti-STAT3 (1:2000, 10253-2-AP, Proteintech Group, China), and anti-phospho-STAT3 (1:1000, 39595, Activemotif, Shanghai, China) at the appropriate dilution and then incubated with the secondary antibody at room temperature for 1.5 h. The bands were visualized by employing an ECL detection reagent (36208ES76, Yeasen, Shanghai, China) and independently quantified twice using ImageJ (v1.8.0.322) and ChemiScope Analysis (Version 2.1.6.0) software. Subsequently, the obtained data were normalized to GAPDH.

[10] = CAL-27, 24 h, CAL-27, CCK-8, 24 h, given as a range, read-out: IC50 (range)
[11] = CAL-27, CAL-27, CCK-8, read-out: IC50 CAL-27
[12] = CCK-8, 24 h, given as a range, read-out: IC50 (range)

Cc1ccc(-c2cc(C)n(S(=O)(=O)Oc3ccc(I)cc3)n2)cc1 [Compound 4b]
IC50 (CAL-27 cells [1]; [10]): 38.9 to 43.8 µM
IC50 (CAL-27 cells [1]; [11]): 41.4 µM
Selectivity Index CAL-27 (CAL-27 cells [1]): 2.47
IC50 (SAS cells [2]; [12]): 26 to 34.6 µM
IC50 (SAS cells [2]; CCK-8, read-out: IC50 SAS): 30.2 µM
Selectivity Index SAS (SAS cells [2]): 3.40
COX-2 mRNA level ([3]; vs CXB-treated group): significantly lower
COX-2 mRNA level ([3]; vs control): significantly downregulated
COX-2 mRNA level (COX-2 mRNA in SAS cells): significantly downregulated
CYP19A1 mRNA expression [4]: significantly reduced
MMP9 mRNA expression [5]: significantly downregulated
apoptotic cells (Hoechst 33342, fluorescence microscopy) (CAL-27 cells [6]): significant increase
apoptotic cells (Hoechst 33342, fluorescence microscopy) (SAS cells [7]): significant increase
BCL2 mRNA level [8]: significantly downregulated
BCL2 protein suppression (Western blot) [9]: stronger suppression of BCL2 than CXB

Cc1ccc(-c2cc(C)n(S(=O)(=O)Oc3ccccc3Cl)n2)cc1 [Compound 4d]
IC50 (CAL-27 cells [1]; [10]): 44.3 to 55.1 µM
IC50 (CAL-27 cells [1]; [11]): 53.9 µM
Selectivity Index CAL-27 (CAL-27 cells [1]): >1.86
IC50 (SAS cells [2]; [12]): 7.46 to 24.3 µM
IC50 (SAS cells [2]; CCK-8, read-out: IC50 SAS): 16.7 µM
Selectivity Index SAS (SAS cells [2]): >6.00
COX-2 mRNA level ([3]; vs CXB-treated group): significantly lower
COX-2 mRNA level ([3]; vs control): significantly downregulated
COX-2 mRNA level (COX-2 mRNA in SAS cells): marked upregulation
CYP19A1 mRNA expression [4]: significantly reduced
MMP9 mRNA expression [5]: significantly downregulated
apoptotic cells (Hoechst 33342, fluorescence microscopy) (CAL-27 cells [6]): significant increase
apoptotic cells (Hoechst 33342, fluorescence microscopy) (SAS cells [7]): significant increase
BCL2 mRNA level [8]: significantly downregulated
BCL2 protein suppression (Western blot) [9]: stronger suppression of BCL2 than CXB

Cc1cc(-c2ccco2)nn1S(=O)(=O)Oc1ccccc1Cl [Compound 5f]
IC50 (CAL-27 cells [1]; [10]): 52.9 to 74.8 µM
IC50 (CAL-27 cells [1]; [11]): 64.2 µM
Selectivity Index CAL-27 (CAL-27 cells [1]): 3.50
IC50 (SAS cells [2]; [12]): 59.4 to 69.5 µM
IC50 (SAS cells [2]; CCK-8, read-out: IC50 SAS): 64.2 µM
Selectivity Index SAS (SAS cells [2]): 3.50
COX-2 mRNA level ([3]; vs CXB-treated group): significantly lower
COX-2 mRNA level ([3]; vs control): significantly downregulated
COX-2 mRNA level (COX-2 mRNA in SAS cells): significantly downregulated
CYP19A1 mRNA expression [4]: significantly reduced
MMP9 mRNA expression [5]: significantly downregulated
apoptotic cells (Hoechst 33342, fluorescence microscopy) (CAL-27 cells [6]): significant increase
apoptotic cells (Hoechst 33342, fluorescence microscopy) (SAS cells [7]): significant increase
BCL2 mRNA level [8]: upregulated
BCL2 protein suppression (Western blot) [9]: stronger suppression of BCL2 than CXB
